# How the values were obtained:
# Assay type in all cases: in vivo
# [1] = system: barnyardgrass (Echinochloa crus-galli); test: Test A postemergence, barnyardgrass; conditions: 0 to 100 scale (0 no effect, 100 complete control)
# How it was run: (§1)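 Pre: directed soil spray after sowing in loam/sand. Post: seedlings at 1–2 leaf stage, 2–10 cm. Vehicle: non-phytotoxic solvent mix + surfactant. Greenhouse ~10 d; visual injury 0–100 vs untreated controls.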
# [2] = system: velvetleaf (Abutilon theophrasti); test: Test A postemergence, velvetleaf; conditions: 0 to 100 scale (0 no effect, 100 complete control)
# How it was run: as §1
# [3] = system: corn (Zea mays); test: Test A postemergence, corn; conditions: 0 to 100 scale (0 no effect, 100 complete control)
# How it was run: as §1
# [4] = system: morningglory (Ipomoea spp.); test: Test A preemergence, morningglory; conditions: 0 to 100 scale (0 no effect, 100 complete control)
# How it was run: as §1
# [5] = system: umbrella sedge (Cyperus difformis); test: Test B flooded paddy test, umbrella sedge; conditions: Flood, scale 0 to 100
# How it was run: (§2)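 Paddy-water application to 2-leaf plants in pots held under 3 cm of flooding; response is a 0–100 visual control rating against controls after 13 to 15 days, and a dash marks a missing result.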
# [6] = system: large crabgrass (Digitaria sanguinalis); test: Test A postemergence, large crabgrass; conditions: 0 to 100 scale (0 no effect, 100 complete control)
# How it was run: as §1
# [7] = system: ducksalad (Heteranthera limosa); test: Test B flooded paddy test, ducksalad; conditions: Flood, scale 0 to 100
# How it was run: as §2
# [8] = system: giant foxtail (Setaria faberi); test: Test A preemergence, giant foxtail; conditions: 0 to 100 scale (0 no effect, 100 complete control)
# How it was run: as §1
# [9] = system: barnyardgrass (Echinochloa crus-galli); test: Test A preemergence, barnyardgrass; conditions: 0 to 100 scale (0 no effect, 100 complete control)
# How it was run: as §1
# [10] = system: velvetleaf (Abutilon theophrasti); test: Test A preemergence, velvetleaf; conditions: 0 to 100 scale (0 no effect, 100 complete control)
# How it was run: as §1
# [11] = system: giant foxtail (Setaria faberi); test: Test A postemergence, giant foxtail; conditions: 0 to 100 scale (0 no effect, 100 complete control)
# How it was run: as §1
# [12] = system: pigweed (Amaranthus retroflexus); test: Test A preemergence, pigweed; conditions: 0 to 100 scale (0 no effect, 100 complete control)
# How it was run: as §1
# [13] = system: corn (Zea mays); test: Test A preemergence, corn; conditions: 0 to 100 scale (0 no effect, 100 complete control)
# How it was run: as §1
# [14] = system: barnyardgrass (Echinochloa crus-galli); test: Test B flooded paddy test, barnyardgrass; conditions: Flood
# How it was run: as §2
# [15] = system: rice (Oryza sativa); test: Test B flooded paddy test, rice; conditions: Flood, scale 0 to 100
# How it was run: as §2
# [16] = system: wheat (Triticum aestivum); test: Test A postemergence, wheat; conditions: 0 to 100 scale (0 no effect, 100 complete control)
# How it was run: as §1
# [17] = system: wheat (Triticum aestivum); test: Test A preemergence, wheat; conditions: 0 to 100 scale (0 no effect, 100 complete control)
# How it was run: as §1
# [18] = system: pigweed (Amaranthus retroflexus); test: Test A postemergence, pigweed; conditions: 0 to 100 scale (0 no effect, 100 complete control)
# How it was run: as §1
# [19] = system: morningglory (Ipomoea spp.); test: Test A postemergence, morningglory; conditions: 0 to 100 scale (0 no effect, 100 complete control)
# How it was run: as §1
# [20] = system: large crabgrass (Digitaria sanguinalis); test: Test A preemergence, large crabgrass; conditions: 0 to 100 scale (0 no effect, 100 complete control)
# How it was run: as §1
# [21] = 250 g ai/ha, scale 0 to 100 (0 no effect, 100 complete control)
compound,measurement,setting,value
CC1(C)CC([S+]([O-])Cc2c(C(F)(F)F)nc3cnccn3c2=O)=NO1 (stereo not shown) [Compound 54],"Plant response rating, Barnyardgrass",[1]; 125 g ai/ha,0
same,"Plant response rating, Barnyardgrass",[1]; 500 g ai/ha,0
same,"Plant response rating, Velvetleaf",[2]; 125 g ai/ha,0
same,"Plant response rating, Velvetleaf",[2]; 500 g ai/ha,0
same,"Plant response rating, Corn",[3]; 125 g ai/ha,0
same,"Plant response rating, Corn",[3]; 500 g ai/ha,0
same,"Plant response rating, Morningglory",[4]; 125 g ai/ha,0
same,"Plant response rating, Morningglory",[4]; 500 g ai/ha,0
same,"Plant response rating, Sedge, Umbrella",[5]; 62 g ai/ha,0
same,"Plant response rating, Sedge, Umbrella",[5]; 250 g ai/ha,0
same,"Plant response rating, Crabgrass, Large",[6]; 125 g ai/ha,0
same,"Plant response rating, Crabgrass, Large",[6]; 500 g ai/ha,20
same,"Plant response rating, Ducksalad",[7]; 62 g ai/ha,0
same,"Plant response rating, Ducksalad",[7]; 250 g ai/ha,0
same,"Plant response rating, Foxtail, Giant",[8]; 125 g ai/ha,0
same,"Plant response rating, Foxtail, Giant",[8]; 500 g ai/ha,0
same,"Plant response rating, Barnyardgrass",[9]; 125 g ai/ha,0
same,"Plant response rating, Barnyardgrass",[9]; 500 g ai/ha,0
same,"Plant response rating, Velvetleaf",[10]; 125 g ai/ha,0
same,"Plant response rating, Velvetleaf",[10]; 500 g ai/ha,0
same,"Plant response rating, Foxtail, Giant",[11]; 125 g ai/ha,0
same,"Plant response rating, Foxtail, Giant",[11]; 500 g ai/ha,50
same,"Plant response rating, Pigweed",[12]; 125 g ai/ha,0
same,"Plant response rating, Pigweed",[12]; 500 g ai/ha,0
same,"Plant response rating, Corn",[13]; 125 g ai/ha,0
same,"Plant response rating, Corn",[13]; 500 g ai/ha,0
same,"Plant response rating, Barnyardgrass","[14]; 62 g ai/ha, scale 0 to 100",0
same,"Plant response rating, Barnyardgrass",[14]; [21],0
same,"Plant response rating, Rice",[15]; 62 g ai/ha,0
same,"Plant response rating, Rice",[15]; 250 g ai/ha,0
same,"Plant response rating, Wheat",[16]; 125 g ai/ha,0
same,"Plant response rating, Wheat",[16]; 500 g ai/ha,0
same,"Plant response rating, Wheat",[17]; 125 g ai/ha,0
same,"Plant response rating, Wheat",[17]; 500 g ai/ha,0
same,"Plant response rating, Pigweed",[18]; 125 g ai/ha,0
same,"Plant response rating, Pigweed",[18]; 500 g ai/ha,0
same,"Plant response rating, Morningglory",[19]; 125 g ai/ha,0
same,"Plant response rating, Morningglory",[19]; 500 g ai/ha,10
same,"Plant response rating, Crabgrass, Large",[20]; 125 g ai/ha,0
same,"Plant response rating, Crabgrass, Large",[20]; 500 g ai/ha,0
CC1(C)CC([S+]([O-])Cc2c(C(F)(F)F)nc3cccnn3c2=O)=NO1 (stereo not shown) [Compound 46],"Plant response rating, Barnyardgrass",[1]; 125 g ai/ha,0
same,"Plant response rating, Barnyardgrass",[1]; 500 g ai/ha,0
same,"Plant response rating, Velvetleaf",[2]; 125 g ai/ha,0
same,"Plant response rating, Velvetleaf",[2]; 500 g ai/ha,0
same,"Plant response rating, Corn",[3]; 125 g ai/ha,0
same,"Plant response rating, Corn",[3]; 500 g ai/ha,0
same,"Plant response rating, Morningglory",[4]; 125 g ai/ha,0
same,"Plant response rating, Morningglory",[4]; 500 g ai/ha,0
same,"Plant response rating, Sedge, Umbrella",[5]; 31 g ai/ha,0
same,"Plant response rating, Sedge, Umbrella",[5]; 62 g ai/ha,0
same,"Plant response rating, Sedge, Umbrella",[5]; 125 g ai/ha,0
same,"Plant response rating, Sedge, Umbrella",[5]; 250 g ai/ha,0
same,"Plant response rating, Crabgrass, Large",[6]; 125 g ai/ha,0
same,"Plant response rating, Crabgrass, Large",[6]; 500 g ai/ha,0
same,"Plant response rating, Ducksalad",[7]; 31 g ai/ha,0
same,"Plant response rating, Ducksalad",[7]; 62 g ai/ha,0
same,"Plant response rating, Ducksalad",[7]; 125 g ai/ha,0
same,"Plant response rating, Ducksalad",[7]; 250 g ai/ha,0
same,"Plant response rating, Foxtail, Giant",[8]; 125 g ai/ha,0
same,"Plant response rating, Foxtail, Giant",[8]; 500 g ai/ha,0
same,"Plant response rating, Barnyardgrass",[9]; 125 g ai/ha,0
same,"Plant response rating, Barnyardgrass",[9]; 500 g ai/ha,0
same,"Plant response rating, Velvetleaf",[10]; 125 g ai/ha,0
same,"Plant response rating, Velvetleaf",[10]; 500 g ai/ha,20
same,"Plant response rating, Foxtail, Giant",[11]; 125 g ai/ha,0
same,"Plant response rating, Foxtail, Giant",[11]; 500 g ai/ha,0
same,"Plant response rating, Pigweed",[12]; 125 g ai/ha,0
same,"Plant response rating, Pigweed",[12]; 500 g ai/ha,0
same,"Plant response rating, Corn",[13]; 125 g ai/ha,0
same,"Plant response rating, Corn",[13]; 500 g ai/ha,0
same,"Plant response rating, Barnyardgrass","[14]; 31 g ai/ha, scale 0 to 100",0
same,"Plant response rating, Barnyardgrass","[14]; 62 g ai/ha, scale 0 to 100",0
same,"Plant response rating, Barnyardgrass","[14]; 125 g ai/ha, scale 0 to 100",0
same,"Plant response rating, Barnyardgrass",[14]; [21],0
same,"Plant response rating, Rice",[15]; 31 g ai/ha,0
same,"Plant response rating, Rice",[15]; 62 g ai/ha,0
same,"Plant response rating, Rice",[15]; 125 g ai/ha,0
same,"Plant response rating, Rice",[15]; 250 g ai/ha,0
same,"Plant response rating, Wheat",[16]; 125 g ai/ha,0
same,"Plant response rating, Wheat",[16]; 500 g ai/ha,0
same,"Plant response rating, Wheat",[17]; 125 g ai/ha,0
same,"Plant response rating, Wheat",[17]; 500 g ai/ha,0
same,"Plant response rating, Pigweed",[18]; 125 g ai/ha,0
same,"Plant response rating, Pigweed",[18]; 500 g ai/ha,0
same,"Plant response rating, Morningglory",[19]; 125 g ai/ha,0
same,"Plant response rating, Morningglory",[19]; 500 g ai/ha,0
same,"Plant response rating, Crabgrass, Large",[20]; 125 g ai/ha,0
same,"Plant response rating, Crabgrass, Large",[20]; 500 g ai/ha,0

# — patent publication US20100099561A1, “HETEROBICYCLIC ALKYLTHIO-BRIDGED ISOXAZOLINES” (E.I. DU PONT DE NEMOURS AND COMPANY, priority 2008, published 2010)
